Test [1] relates to Klebsiella pneumoniae. Description: Antibacterial activity against Klebsiella pneumoniae at 250 ug/ml after 24 to 45 hrs by disc diffusion method. The class given is functional. Conditions: read-out: IZ.
Test [2] has as its system Aspergillus niger. Description: Antifungal activity against Aspergillus niger at 50 ug/ml after 72 hrs by disc diffusion method. The class given is functional, organism-based. (In agar diffusion tests the substance spreads into inoculated agar from a disc or well.)
The test system of test [3] is Staphylococcus aureus. Description: Antibacterial activity against Staphylococcus aureus at 250 ug/ml after 24 to 45 hrs by disc diffusion method. It counts as functional. Conditions: read-out: IZ.
The subject of test [4] is Pseudomonas. Description: Antibacterial activity against Pseudomonas at 250 ug/ml after 24 to 45 hrs by disc diffusion method. It counts as functional. Particulars: read-out: IZ.
For test [5], the system named is Penicillium. Description: Antifungal activity against Penicillium at 50 ug/ml after 72 hrs by disc diffusion method. It counts as functional, organism-based.
For test [6], the system named is Escherichia coli. Description: Antibacterial activity against Escherichia coli at 250 ug/ml after 24 to 45 hrs by disc diffusion method. It counts as functional. Particulars: read-out: IZ.
The subject of test [7] is Achaea janata. Description: Antifeedant activity against fourth instar larvae of Achaea janata fed on compound treated castor leaves at 200 ppm after 24 hrs by leaf disc method. It counts as functional, organism-based.
Test [8] relates to Achaea janata. Description: Antifeedant activity against fourth instar larvae of Achaea janata fed on compound treated castor leaves at 150 ppm after 24 hrs by leaf disc method. The class given is functional, organism-based.
Test [9] has as its system Enterococcus faecalis. Description: Antibacterial activity against Enterococcus faecalis at 250 ug/ml after 24 to 45 hrs by disc diffusion method. The class given is functional. Particulars: for zone of inhibition at 250 µg/mL: read-out: IZ.
Test [10] concerns Candida albicans. Description: Antifungal activity against Candida albicans at 250 ug/ml after 72 hrs by disc diffusion method. Conditions: for zone of inhibition at 250 µg/mL: read-out: IZ. It counts as functional.
Test [11] deals with Proteus vulgaris. Description: Antibacterial activity against Proteus vulgaris at 250 ug/ml after 24 to 45 hrs by disc diffusion method. The class given is functional. Particulars: read-out: IZ.

The source made the active and inactive calls.

Turning to `FC(F)(F)c1ccc2c(c1)CN1CN2Cc2cc(C(F)(F)F)ccc21`, the zone of inhibition at 250 µg/mL in test [1], in test [3], in [4], in test [6] and in test [11] was 13 mm each time. Besides, the result in [2], in test [5], in test [9] and in test [10] was inactive. The result in test [7] and in test [8] was Active.
Regarding `Fc1cc(F)c2c(c1)CN1CN2Cc2cc(F)cc(F)c21`, the zone of inhibition at 250 µg/mL came to 8 mm in [1]; 8 mm in test [3]; 8 mm in test [4]; 13 mm in [6]; 8 mm in test [11]. The result in test [2], in test [5], in test [9] and in test [10] was inactive. Moreover, the outcome in test [7] and in test [8] was Active.
In the case of `Cc1ccc2c(c1I)CN1CN2Cc2c1ccc(C)c2I`, the zone of inhibition at 250 µg/mL was 13 mm in [1]; 8 mm in test [3]; 13 mm in test [4]; 8 mm in test [6]; 13 mm in test [9]; 13 mm in test [10]. In test [11], the zone of inhibition at 250 µg/mL was 8 mm. For the same molecule, the result in test [2] and in [5] was inactive. For the same molecule, the result in test [7] was Active.
`Cc1cc(F)c2c(c1)CN1CN2Cc2cc(C)cc(F)c21`: the zone of inhibition at 250 µg/mL in test [1] amounted to 13 mm; in test [3], 13 mm; in [4], 8 mm; in test [6] it was 13 mm; in test [10] it was 8 mm; in [11], 13 mm. Further, the result in test [2], in test [5] and in test [9] was inactive. Also, the result in test [7] was Active.
For the molecule `Clc1ccc2c(c1)N1Cc3ccc(Cl)cc3N(C2)C1`, the zone of inhibition at 250 µg/mL in test [1] worked out at 13 mm; in [3], 13 mm; in [4] it was 13 mm; in test [6], 13 mm; in test [9] it was 13 mm; in test [10], 8 mm. Moreover, in test [11], the zone of inhibition at 250 µg/mL was 13 mm. The outcome in test [2] and in [5] was inactive. Besides, the outcome in test [7] was Active.
As to `Clc1ccc2c(c1)CN1CN2Cc2cc(Cl)ccc21`, the zone of inhibition at 250 µg/mL in test [1], in test [3], in test [4], in test [6] and in test [11] was 13 mm each time. For the same molecule, the outcome in test [2], in test [5], in test [9] and in test [10] was inactive. The outcome in test [7] was Active.
Take `Fc1cc2c(cc1Cl)N1Cc3cc(F)c(Cl)cc3N(C2)C1`: the zone of inhibition at 250 µg/mL in [1], in test [3], in test [4], in test [6], in [10] and in [11] was 13 mm in each case. Also, the result in [2] and in [9] was inactive. Besides, the result in [5], in test [7] and in test [8] was Active.
For the molecule `Cc1cc2c(cc1I)N1Cc3cc(C)c(I)cc3N(C2)C1`, the zone of inhibition at 250 µg/mL came to 8 mm in test [1]; 13 mm in test [3]; 8 mm in [4]; 8 mm in test [6]; 13 mm in [10]; 8 mm in [11]. For the same molecule, the outcome in [2], in [5] and in test [9] was inactive. The result in [7] was Active.
As for `Cc1ccc2c(c1Br)CN1CN2Cc2c1ccc(C)c2Br`, the zone of inhibition at 250 µg/mL was 13 mm in [1]; 13 mm in [3]; 13 mm in test [4]; 13 mm in [6]; 8 mm in test [9]; 8 mm in test [10]. Further, the zone of inhibition at 250 µg/mL in [11] was 13 mm. In addition, the result in test [2] and in test [5] was inactive. In addition, in test [7], the result was Active.
As for `Fc1ccc2c(c1)N1Cc3ccc(F)cc3N(C2)C1`, the zone of inhibition at 250 µg/mL in test [1] turned out to be 13 mm; in test [3], 13 mm; in [4], 8 mm; in test [6], 13 mm; in [10], 8 mm; in [11], 13 mm. For the same molecule, the result in [2], in [5] and in test [9] was inactive. Further, the result in test [7] was Active.
`Cc1ccc2c(c1Cl)CN1CN2Cc2c1ccc(C)c2Cl`: the zone of inhibition at 250 µg/mL came to 13 mm in test [1]; 13 mm in test [3]; 13 mm in test [4]; 13 mm in test [6]; 8 mm in test [9]; 13 mm in [10]. Moreover, the zone of inhibition at 250 µg/mL in [11] is 13 mm. Moreover, the result in test [2] and in [5] was inactive. Besides, the result in test [7] was Active.
In the case of `Fc1cccc2c1N1Cc3cccc(F)c3N(C2)C1`, the zone of inhibition at 250 µg/mL in test [1] worked out at 8 mm; in test [3] it was 8 mm; in test [4] it was 8 mm; in test [6], 13 mm; in test [10], 8 mm; in [11] it was 8 mm. For the same molecule, the outcome in test [2], in [5] and in [9] was inactive. The result in test [7] was Active.
`Cc1cc(I)c2c(c1)CN1CN2Cc2cc(C)cc(I)c21`: the zone of inhibition at 250 µg/mL in test [1] is 13 mm; in test [3] it was 13 mm; in test [4], 8 mm; in test [6], 13 mm; in test [9], 8 mm; in test [10], 13 mm. For the same molecule, in [11], the zone of inhibition at 250 µg/mL amounted to 13 mm. Besides, the result in [2] and in [5] was inactive. Moreover, the outcome in [7] was Active.
For the molecule `Brc1cccc2c1CN1CN2Cc2c(Br)cccc21`, the zone of inhibition at 250 µg/mL in test [1] worked out at 13 mm; in test [3] it was 8 mm; in [4], 13 mm; in [6], 8 mm; in [9] it was 13 mm; in test [10], 8 mm. Further, the zone of inhibition at 250 µg/mL in test [11] worked out at 8 mm. In addition, the outcome in test [2] and in [5] was inactive. Besides, the outcome in test [7] was Active.
For the molecule `Cc1cc2c(cc1F)N1Cc3cc(C)c(F)cc3N(C2)C1`, the zone of inhibition at 250 µg/mL in [1] came out at 13 mm; in test [3], 13 mm; in test [4], 13 mm; in test [6], 13 mm; in test [9], 8 mm; in test [10] it was 13 mm. The zone of inhibition at 250 µg/mL in test [11] amounted to 13 mm. Moreover, the result in [2] and in test [5] was inactive. Moreover, the result in test [7] was Active.
As for `Cc1cc(Cl)c2c(c1)CN1CN2Cc2cc(C)cc(Cl)c21`, the zone of inhibition at 250 µg/mL in test [1] came out at 13 mm; in test [3], 13 mm; in test [4], 8 mm; in test [6], 13 mm; in test [11], 13 mm. In addition, the result in test [2], in test [5], in test [9] and in test [10] was inactive. Moreover, in test [7], the outcome was Active.
With `Fc1ccc2c(c1)CN1CN2Cc2cc(F)ccc21`, the zone of inhibition at 250 µg/mL in [1] turned out to be 13 mm; in [3] it was 13 mm; in [4], 8 mm; in test [6], 13 mm; in [10], 8 mm; in test [11], 13 mm. The result in [2], in test [5] and in test [9] was inactive. The outcome in test [7] was Active.

These data come from ChEMBL document CHEMBL3046842, “Antimicrobial and insect antifeedant activities of some Trogers bases” (2012).
